This note sets out measurements from article PMC3715805 (International Journal of Molecular Sciences, 2007).

This test concerns the target T1, cyclooxygenase-1 (COX-1) (Ovis aries, UniProt P05979).
T1 sequence (P05979 25-600): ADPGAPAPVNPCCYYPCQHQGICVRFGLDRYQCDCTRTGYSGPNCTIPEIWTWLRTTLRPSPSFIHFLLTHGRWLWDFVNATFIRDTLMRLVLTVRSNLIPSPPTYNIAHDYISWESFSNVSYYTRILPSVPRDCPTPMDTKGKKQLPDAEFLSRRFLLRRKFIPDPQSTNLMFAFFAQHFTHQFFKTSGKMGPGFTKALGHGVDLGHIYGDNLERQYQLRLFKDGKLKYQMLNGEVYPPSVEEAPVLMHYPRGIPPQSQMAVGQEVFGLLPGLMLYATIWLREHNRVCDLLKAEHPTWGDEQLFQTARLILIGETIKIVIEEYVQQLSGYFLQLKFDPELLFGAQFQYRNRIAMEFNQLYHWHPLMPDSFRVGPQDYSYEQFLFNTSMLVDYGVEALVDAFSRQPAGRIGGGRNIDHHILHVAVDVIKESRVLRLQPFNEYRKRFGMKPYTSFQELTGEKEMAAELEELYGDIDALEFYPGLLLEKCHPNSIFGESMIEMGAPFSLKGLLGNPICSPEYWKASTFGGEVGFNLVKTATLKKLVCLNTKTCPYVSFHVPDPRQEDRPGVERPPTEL
Put plainly: O2 consumption. Type of test: biochemical.

As a reminder, the IC50 is the concentration needed to halve the response being measured. A high value points to lower potency.

Consider `COc1cc(O)c2c(=O)cc(-c3ccc(OC)c(-c4c(O)cc(O)c5c(=O)cc(-c6ccc(O)cc6)oc45)c3)oc2c1` [compound 1, ginkgetin], for which the IC50 was > 100 µM.
